According to patent US9273033B2, “Substituted pyridone derivatives as PDE10 inhibitors” (Merck Sharp & Dohme Corp., priority 2012, dated 2016):

Target: human PDE10A2 (Homo sapiens (Human), UniProt Q9Y233)
Assay: PDE10 fluorescence polarization (IMAP FP) inhibition assay
Assay type: biochemical
Conditions: human PDE10A2, FAM-labeled cAMP substrate, read-out: PDE10A Ki
Experimental: The activity of the compounds in accordance with the present invention as PDE10 inhibitors may be readily determined without undue experimentation using a fluorescence polarization (FP) methodology that is well known in the art (Huang, W., et al., J. Biomol Screen, 2002, 7: 215).
In a typical experiment the PDE10 inhibitory activity of the compounds of the present invention was determined in accordance with the following experimental method. PDE10A2 was amplified from human fetal brain cDNA (Clontech, Mountain View, Calif.) using a forward primer corresponding to nucleotides 56-77 of human PDE10A2 (Accession No. AF127480, Genbank Identifier 4894716), containing a Kozak consensus sequence, and a reverse primer corresponding to nucleotides 2406-2413 of human PDE10A2 (Accession No. AF127480, Genbank Identifier 4894716). Amplification with Easy-A polymerase (Stratagene, La Jolla, Calif.) was 95° C. for 2 minutes followed by thirty three cycles of 95° C. for 40 seconds, 55° C. for 30 seconds, and 72° C. for 2 minutes 48 seconds. Final extension was 72° C. for 7 minutes. The PCR product was TA cloned into pcDNA3.2-TOPO (Invitrogen, Carlsbad, Calif.) according to standard protocol. AD293 cells with 70-80% confluency were transiently transfected with human PDE10A2/pcDNA3.2-TOPO using Lipofectamine 2000 according to manufacturer specifications (Invitrogen, Carlsbad, Calif.). Cells were harvested 48 hours post-transfection and lysed by sonication (setting 3, 10×5 sec pulses) in a buffer containing 20 mM HEPES, 1 mM EDTA and protease inhibitor cocktail (Roche). Lysate was collected by centrifugation at 75,000×g for 20 minutes. Supernatant containing the cytoplasmic fraction was used for evaluation of PDE10A2 activity. The fluorescence polarization assay for cyclic nucleotide phosphodiesterases was performed using an IMAP® FP kit supplied by Molecular Devices, Sunnyvale, Calif. (product # R8139). IMAPU technology has been applied previously to phosphodiesterase assays (Huang, W., et al., J. Biomol Screen, 2002, 7: 215). Assays were performed at room temperature in 384-well microtiter plates with an incubation volume of 20.2 μL. Solutions of test compounds were prepared in DMSO and serially diluted with DMSO to yield 8 μL of each of 10 solutions differing by 3-fold in concentration, at 32 serial dilutions per plate. 100% inhibition is determined using a known PDE10 inhibitor, which can be any compound that is present at 5,000 times its Ki value in the assay described as follows, such as papaverine (see Siuciak, et al. Neuropharmacology (2006) 51:386-396; Becker, et al. Behav Brain Res (2008) 186(2):155-60; Threlfell, et al., J Pharmacol Exp Ther (2009) 328(3):785-795), 2-{4-[pyridin-4-yl-1-(2,2,2-trifluoroethyl)-1H-pyrazol-3-yl]phenoxymethyl}quinoline succinic acid or 2-[4-(1-methyl-4-pyridin-4-yl-1H-pyrazol-3-yl)-phenoxymethyl]quinoline succinic acid (see Schmidt, et al. J Pharmacol Exp Ther (2008) 325:681-690; Threlfell, et al., J Pharmacol Exp Ther (2009) 328(3): 785-795). 0% of inhibition is determined by using DMSO (1% final concentrations).
A Labcyte Echo 555 (Labcyte, Sunnyvale, Calif.) is used to dispense 200 nL from each well of the titration plate to the 384 well assay plate. A solution of enzyme (1/1600 dilution from aliquots; sufficient to produce 20% substrate conversion) and a separate solution of FAM-labeled cAMP PDE from Molecular Devices (product # R7506), at a final concentration of 50 nM are made in the assay buffer (10 mM Tris HCl, pH 7.2, 10 mM MgCl2, 0.05% NaN3 0.01% Tween-20, and 1 mM DTT). The enzyme and the substrate are then added to the assay plates in two consecutive additions of 10 μL, and then shaken to mix. The reaction is allowed to proceed at room temperature for 30 minutes. A binding solution is then made from the kit components, comprised of 80% Solution A, 20% Solution B and binding reagent at a volume of 1/600 the total binding solution.

Sequence of human PDE10A2 (Q9Y233 267-1055): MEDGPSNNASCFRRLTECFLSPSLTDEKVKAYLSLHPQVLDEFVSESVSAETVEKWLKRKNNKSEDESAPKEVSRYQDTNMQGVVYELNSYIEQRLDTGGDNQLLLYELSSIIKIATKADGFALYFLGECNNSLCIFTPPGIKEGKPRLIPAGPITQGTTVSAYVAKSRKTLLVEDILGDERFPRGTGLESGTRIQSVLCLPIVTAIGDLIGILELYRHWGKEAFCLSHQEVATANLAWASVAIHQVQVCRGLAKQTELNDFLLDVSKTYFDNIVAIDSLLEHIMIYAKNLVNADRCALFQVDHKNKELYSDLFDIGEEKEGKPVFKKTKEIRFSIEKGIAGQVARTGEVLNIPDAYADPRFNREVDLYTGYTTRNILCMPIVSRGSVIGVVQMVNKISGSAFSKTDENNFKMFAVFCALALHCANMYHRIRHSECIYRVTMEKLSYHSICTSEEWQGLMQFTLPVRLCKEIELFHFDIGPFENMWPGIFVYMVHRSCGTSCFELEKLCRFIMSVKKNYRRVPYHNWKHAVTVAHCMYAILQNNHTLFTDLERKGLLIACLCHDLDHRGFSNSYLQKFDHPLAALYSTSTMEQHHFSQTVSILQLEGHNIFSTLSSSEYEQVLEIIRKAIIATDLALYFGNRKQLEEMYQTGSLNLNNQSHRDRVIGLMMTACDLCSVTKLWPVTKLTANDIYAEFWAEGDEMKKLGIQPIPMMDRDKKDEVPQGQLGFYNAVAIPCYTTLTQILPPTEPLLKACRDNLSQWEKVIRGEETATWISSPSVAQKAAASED

Compared with `COc1ccc([C@H]2C[C@@H]2COc2nc(C)ncc2-c2cc(=O)n(C)cc2[S+](C)[O-])nc1` (single isomer, unassigned) [Example 109, 4-(4-(((1S,2S)-2-(5-methoxypyridin-2-yl)cyclopropyl)methoxy)-2-methylpyrimidin-5-yl)-1-methyl-5-(methylsulfinyl)pyridin-2(1H)-one,R or S], `COc1ccc([C@H]2C[C@@H]2COc2nc(C)ncc2-c2ccc(=O)n(C)c2)nc1` [Example 2, 5-(4-(((1S,2S)-2-(5-methoxypyridin-2-yl)cyclopropyl)methoxy)-2-methylpyrimidin-5-yl)-1-methylpyridin-2(1H)-one] is 63-fold lower in Ki: 63.8 nM for the first, 1.01 nM for the second.

Going from `COc1ccc([C@H]2C[C@@H]2COc2nc(C)ncc2-c2cc(=O)n(C)cc2[S+](C)[O-])nc1` (single isomer, unassigned) [Example 110, 4-(4-(((1S,2S)-2-(5-methoxypyridin-2-yl)cyclopropyl)methoxy)-2-methylpyrimidin-5-yl)-1-methyl-5-(methylsulfinyl)pyridin-2(1H)-one, S or R] to `COc1ccc([C@H]2C[C@@H]2COc2nc(C)ncc2-c2cc(F)c(=O)n(C)c2)nc1` [Example 18, 3-fluoro-5-(4-(((1S,2S)-2-(5-methoxypyridin-2-yl)cyclopropyl)methoxy)-2-methylpyrimidin-5-yl)-1-methylpyridin-2(1H)-one], the Ki falls from 49 nM to 1.29 nM (38-fold).

Compared with `COC(=O)Cn1cc(-c2cnc(C)nc2OC[C@H]2C[C@@H]2c2ccc(C)cn2)ccc1=O` [Example 1, methyl 2-(5-(2-methyl-4-(((1S,2S)-2-(5-methylpyridin-2-yl)cyclopropyl)methoxy)pyrimidin-5-yl)-2-oxopyridin-1(2H)-yl)acetate], `CCn1cc(-c2cnc(C)nc2OC[C@H]2C[C@@H]2c2ccc(C)cn2)ccc1=O` [Example 5, 1-ethyl-5-(2-methyl-4-(((1S,2S)-2-(5-methylpyridin-2-yl)cyclopropyl)methoxy)pyrimidin-5-yl)pyridin-2(1H)-one] is 4-fold lower in Ki: 4.39 nM for the first, 1.1 nM for the second. The second binds more tightly here.

Going from `Cc1ccc([C@H]2C[C@@H]2COc2nc(C)ncc2-c2ccc(=O)n(C)c2C)nc1` [Example 3, 1,6-dimethyl-5-(2-methyl-4-(((1S,2S)-2-(5-methylpyridin-2-yl)cyclopropyl)methoxy)pyrimidin-5-yl)pyridin-2(1H)-one] to `CCn1c(C)c(-c2cnc(C)nc2OC[C@H]2C[C@@H]2c2ccc(C)cn2)ccc1=O` [Example 4, 1-ethyl-6-methyl-5-(2-methyl-4-(((1S,2S)-2-(5-methylpyridin-2-yl)cyclopropyl)methoxy)pyrimidin-5-yl)pyridin-2(1H)-one], the Ki rises from 0.217 nM to 1.95 nM (9-fold). The first binds more tightly here.

First: COCCn1cc(-c2cnc(C)nc2OC[C@H]2C[C@@H]2c2ccc(C)cn2)ccc1=O [Example 6, 1-(2-methoxyethyl)-5-(2-methyl-4-(((1S,2S)-2-(5-methylpyridin-2-yl)cyclopropyl)methoxy)pyrimidin-5-yl)pyridin-2(1H)-one]
Second: COn1cc(-c2cnc(C)nc2OC[C@H]2C[C@@H]2c2ccc(C)cn2)ccc1=O [Example 8, 1-methoxy-5-(2-methyl-4-(((1S,2S)-2-(5-methylpyridin-2-yl)cyclopropyl)methoxy)pyrimidin-5-yl)pyridin-2(1H)-one]
The Ki of the first is 1.7-fold lower: 1.38 nM for the first, 2.33 nM for the second. The first binds more tightly here.

Going from `COCCn1c(C)c(-c2cnc(C)nc2OC[C@H]2C[C@@H]2c2ccc(C)cn2)ccc1=O` [Example 7, 1-(2-methoxyethyl)-6-methyl-5-(2-methyl-4-(((1S,2S)-2-(5-methylpyridin-2-yl)cyclopropyl)methoxy)pyrimidin-5-yl)pyridin-2(1H)-one] to `Cc1ccc([C@H]2C[C@@H]2COc2nc(C)ncc2-c2ccc(=O)n(C(C)C)c2)nc1` [Example 13, 1-isopropyl-5-(2-methyl-4-(((1S,2S)-2-(5-methylpyridin-2-yl)cyclopropyl)methoxy)pyrimidin-5-yl)pyridin-2(1H)-one], the Ki falls from 3.06 nM to 0.823 nM (3.7-fold). The second binds more tightly here.

Going from `Cc1ncc(-c2ccc(=O)n(C(C)C)c2)c(OC[C@H]2C[C@@H]2c2ccc3ccccc3n2)n1` [Example 9, 1-isopropyl-5-(2-methyl-4-(((1S,2S)-2-(quinolin-2-yl)cyclopropyl)methoxy)pyrimidin-5-yl)pyridin-2(1H)-one] to `Cc1ncc(-c2ccc(=O)n(C(F)F)c2)c(OC[C@H]2C[C@@H]2c2ccc3ccccc3n2)n1` [Example 11, 1-(difluoromethyl)-5-(2-methyl-4-(((1S,2S)-2-(quinolin-2-yl)cyclopropyl)methoxy)pyrimidin-5-yl)pyridin-2(1H)-one], the Ki rises from 0.014 nM to 0.048 nM (3.4-fold).

First: Cc1ncc(-c2ccc(=O)n(-c3ccccc3)c2)c(OC[C@H]2C[C@@H]2c2ccc3ccccc3n2)n1 [Example 10, 5-(2-methyl-4-(((1S,2S)-2-(quinolin-2-yl)cyclopropyl)methoxy)pyrimidin-5-yl)-1-phenylpyridin-2(1H)-one]
Second: Cc1ccc([C@H]2C[C@@H]2COc2nc(C)ncc2-c2ccc(=O)n(-c3ccccc3)c2)nc1 [Example 15, 5-(2-methyl-4-(((1S,2S)-2-(5-methylpyridin-2-yl)cyclopropyl)methoxy)pyrimidin-5-yl)-1-phenylpyridin-2(1H)-one]
The Ki of the first is 22-fold lower: 0.216 nM for the first, 4.86 nM for the second.

Compared with `COn1cc(-c2cnc(C)nc2OC[C@H]2C[C@@H]2c2ccc3ccccc3n2)ccc1=O` [Example 12, 1-methoxy-5-(2-methyl-4-(((1S,2S)-2-(quinolin-2-yl)cyclopropyl)methoxy)pyrimidin-5-yl)pyridin-2(1H)-one], `COc1ccc([C@H]2C[C@@H]2COc2nc(C)ncc2-c2ccc(=O)n(-c3ccccc3)c2)nc1` [Example 19, 5-(4-(((1S,2S)-2-(5-methoxypyridin-2-yl)cyclopropyl)methoxy)-2-methylpyrimidin-5-yl)-1-phenylpyridin-2(1H)-one] is 88-fold higher in Ki: 0.053 nM for the first, 4.68 nM for the second.

`Cc1ccc([C@H]2C[C@@H]2COc2nc(C)ncc2-c2ccc(=O)n(C(F)F)c2)nc1` [Example 14, 1-(difluoromethyl)-5-(2-methyl-4-(((1S,2S)-2-(5-methylpyridin-2-yl)cyclopropyl)methoxy)pyrimidin-5-yl)pyridin-2(1H)-one] and `COc1ccc([C@H]2C[C@@H]2COc2nc(C)ncc2-c2ccc(=O)n(C(F)F)c2)nc1` [Example 20, 1-(difluoromethyl)-5-(4-(((1S,2S)-2-(5-methoxypyridin-2-yl)cyclopropyl)methoxy)-2-methylpyrimidin-5-yl)pyridin-2(1H)-one] are within 1.5-fold of each other in Ki: 1.1 nM for the first, 1.21 nM for the second.

`CCc1cc(-c2cnc(C)nc2OC[C@H]2C[C@@H]2c2ccc(OC)cn2)cn(C)c1=O` [Example 16, 3-ethyl-5-(4-(((1S,2S)-2-(5-methoxypyridin-2-yl)cyclopropyl)methoxy)-2-methylpyrimidin-5-yl)-1-methylpyridin-2(1H)-one] and `COc1ccc([C@H]2C[C@@H]2COc2nc(C)ncc2-c2cc(OC)c(=O)n(C)c2)nc1` [Example 17, 3-methoxy-5-(4-(((1S,2S)-2-(5-methoxypyridin-2-yl)cyclopropyl)methoxy)-2-methylpyrimidin-5-yl)-1-methylpyridin-2(1H)-one] are within 1.5-fold of each other in Ki: 0.185 nM for the first, 0.151 nM for the second.

For `COc1ccc([C@H]2C[C@@H]2COc2nc(C)ncc2-c2ccc(=O)n(C(C)C)c2)nc1` [Example 21, 1-isopropyl-5-(4-(((1S,2S)-2-(5-methoxypyridin-2-yl)cyclopropyl)methoxy)-2-methylpyrimidin-5-yl)pyridin-2(1H)-one], the Ki was 0.827 nM.
